Measurements: article PMC8062851, “2-Methoxyestradiol and its derivatives inhibit store-operated Ca^2+ entry in T cells: Identification of a new and potent inhibitor” (Biochimica et Biophysica Acta. Molecular Cell Research, 2021)
Entries after “also recorded” stand apart in the source; their conditions may differ.

Experiments:
ORAI1 = target: T1, ORAI1 (Homo sapiens, UniProt Q96D31); test: Live cell Ca2+ imaging of G-GECO1.2-ORAI1 transfected Jurkat T cells; type: cell-based; details: 10 μM
T1 construct: host or cells: Jurkat T-lymphocytes (electroporation)
Protocol: 12.5 ∗ 10^6 Jurkat T–lymphocytes were pelleted at 400 to 450 ×g for 5 min at room temperature and pellets were dissolved in 500 μl RPMI 1640 medium (Gibco) without phenol red containing L-glutamine, supplemented with 7.5% (v/v) NCS. 30 μg plasmid-DNA (G-GECO1.2-ORAI1) was transferred into a 4 mm electroporation cuvette (Biozym, Austria) and the Jurkat T-lymphocytes were added. G-GECO1.2-ORAI1 was a gift from Michael Cahalan, USA (Addgene plasmid # 73562). After an incubation of 5 min at 37 °C, cells were electroporated with 960 μF and 240 V (τ: […]). […]
17 to 22 h after electroporation, 5 ∗ 10^4 cells were pelleted at 400–450 ×g for 5 min at room temperature and cell pellets were dissolved in 50 μl nominal Ca^2+ free buffer. […] The fluorophore was excited at 488 nm every 2 s for 30 min and fluorescence was measured at 520 nm using Volocity (Version 6.3, Perkin Elmer).
Using ImageJ (Version 1.51 k, National Institutes of Health, USA) the pictures were analyzed for mean fluorescence in the outer ring of Jurkat T-lymphocytes employing ring-shaped regions of interest (ROIs). […] The mean background fluorescence values were subtracted from the signal in every image. For quantitative analysis, fluorescence intensities were normalized to the first fluorescence intensity (F/F0).

TMBP cells = test: In vitro activation of TMBP cells by MBP, cytokine mRNA by qPCR; type: cell-based, rat; details: TMBP cells + MBP; 6 h; qPCR; STX564 vs Synta66
Protocol: Myelin basic protein (MBP)-reactive CD4^+ T cells retrovirally transduced to express enhanced GFP (TMBP cells) were established as previously reported. In brief, 6–8 week old female Lewis rats were immunized subcutaneously with 150 μl of emulsion consisting of equal parts of MBP (stock concentration: 1 mg/ml) and complete Freund's adjuvant containing heat-inactivated Mycobacterium tuberculosis extract (Difco; stock concentration: 2 mg/ml). Draining lymph nodes were harvested and passed through a cell strainer (40 μm) 9–10 days after immunization. The cell suspension was co-cultured with GP + E86 packaging cell lines producing replication-deficient retroviruses in the presence of 10 μg/ml MBP. Murine IL-2 was added to the culture for T cell expansion from day 2–4 after stimulation. The cell lines underwent 3–4 cycles of stimulation before being used for in vitro and in vivo experiments. […] Upon stimulation, they produced interferon-γ and IL-17.
In vitro activation assays were performed in 96-well plates. […]. TMBP cell activation on mRNA level was determined using qPCR and on surface protein level using surface marker staining and subsequent flow cytometry analysis.
Total RNA was isolated using the standard TRIzol method. cDNA was synthesized using the RevertAid First Strand cDNA Synthesis Kit (Thermo Fisher Scientific). Quantitative PCR (qPCR) was performed using the StepOnePlus™ Real-Time PCR System (Applied Biosystems), as previously described [[23], [24], [25]]. Rat TMBP cell data were obtained from three to four independent duplicate measurements. β-actin served as housekeeping gene. Human PBMC data were obtained from two independent healthy donors and duplicate measurements (representative data of one donor are shown). HPRT served as housekeeping gene. For all probes (TaqMan), a combination of 5′-FAM and 3′-TAMRA quencher was used as described.

[1] = test system: alpha-dendrotoxin sensitive KV channels, likely KV1.1, KV1.2 and/or KV1.6; details: 10 μM; ref Di Sabatino et al. [36]; cited from earlier work
IP3 receptors = test: IP3-evoked Ca2+ release in permeabilized Jurkat T cells; type: cell-based, human; details: 2 μM IP3
Protocol: (§1) 3 ∗ 10^7 Jurkat T-lymphocytes per measurement were centrifuged at 450 ×g for 5 min at room temperature. The pellet was rinsed twice, each time using 10 ml permeabilization buffer 1 (120 mM KCl, 10 mM NaCl, 1.2 mM MgCl2, 0.533 mM CaCl2, 1 mM EGTA and 10 mM HEPES, pH 7.2 (KOH), sterile filtered). Subsequently, the pellet was resuspended in 2 ml permeabilization buffer 1 containing 80 μg/ml saponin (Fluka) and the cells were incubated for 10 min at 37 °C. Subsequently, the cells were centrifuged at 450 ×g for 5 min at room temperature and the cell pellet was washed once in 10 ml permeabilization buffer 2 (120 mM KCl, 10 mM NaCl, 1.2 mM MgCl2 and 10 mM HEPES, pH 7.2 (KOH), sterile filtered). Finally, the cells were taken up in 1 ml permeabilization buffer 2, placed into a cuvette and measured at the fluorescence spectrophotometer. Before the start of the measurement, 0.5 μl of 1 mM Fura2 free acid (dissolved in pure water, final concentration: 0.5 μM), 5 μl of 5 mg/ml creatinkinase (dissolved in permeabilization buffer 2, final concentration: 25 μg/ml, 20 U/ml, Roche) and 10 μl of 2 M creatin phosphate (dissolved in permeabilization buffer 2, final concentration: 20 mM, Calbiochem) were added. Fura2 was used to measure the Ca^2+ concentration and creatinkinase and creatin phosphate were used as ATP-regenerating system. The measurement was controlled by FL Solutions (Version 4.1, Hitachi High-Technologies Corporation). Fura2 was alternatively excited every 2 s at 340 ± 5 nm and 380 ± 5 nm, each 400 ms apart. Fluorescence intensity was measured at an emission wavelength of 495 ± 5 nm for both excitation wavelengths. […] Ca^2+ concentrations were calculated according to Grynkiewicz et al. as described earlier in Section 2.4.
(§2) As a quantitative read-out for inhibition of IP3 receptors, the peak [Ca^2+] after IP3 addition was subtracted from the mean [Ca^2+] between 25 and 75 s before IP3 addition (dPeak). […] The rate constant K of the fitted data was used as a quantitative read-out for SERCA pump activity and its inhibition.

KV1.3 channels = test system: KV1.3 channels; parameters: method as in patent WO2005/009954A2 (compound 66); details: ref patent WO2005/009954A2 (compound 66); cited from earlier work
SERCA pumps = test: SERCA activity (ATP-induced Ca2+ reuptake) in permeabilized Jurkat T cells; type: cell-based, human
Protocol: as §1, §2

T1 sequence (Q96D31 whole entry): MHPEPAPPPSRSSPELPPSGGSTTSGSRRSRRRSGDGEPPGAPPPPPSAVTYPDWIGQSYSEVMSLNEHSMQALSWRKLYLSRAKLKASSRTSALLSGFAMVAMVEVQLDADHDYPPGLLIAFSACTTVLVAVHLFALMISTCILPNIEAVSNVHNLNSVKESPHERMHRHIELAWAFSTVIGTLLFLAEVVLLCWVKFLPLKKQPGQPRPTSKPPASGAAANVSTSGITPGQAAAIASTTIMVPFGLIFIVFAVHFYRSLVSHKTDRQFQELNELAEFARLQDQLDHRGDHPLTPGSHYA

In the case of `COc1ccc(OC)c(-c2ccc(NC(=O)c3ccncc3F)cc2)c1` [Synta66], the “SOCE by ORAI1 (G-GECO1.2-ORAI1 fluorescence)” value (ORAI1) is given as “almost completely diminished”, the “concentration at which interferon-γ expression was significantly antagonized” value (TMBP cells) is given as no less than 10 µM and the “inhibition of alpha-dendrotoxin sensitive KV channels” value [1] is given as less than 10%. For the same molecule, the “effect on IP3-evoked Ca2+ release” value (IP3 receptors) was “Neither STX564 nor Synta66 affected IP3-evoked Ca^2+ release significantly; also recorded: did not inhibit the Ca^2+ release by IP3”, the “inhibition of KV1.3 channels” value (KV1.3 channels) was “inhibits KV1.3 channels” and the “effect on SERCA activity (initial slope of [Ca2+] upon ATP addition)” value (SERCA pumps) was “Neither STX564, Synta66 nor vehicle DMSO affected ATP-induced Ca^2+ reuptake by SERCA pumps; also recorded: neither STX564 nor Synta66 showed any effect”.
